Data as given in paper PMC6158167 (Nature Communications, 2018).

Columns and labels:
[…] 1 (PYR1) = biological target: […] 1 (PYR1); set-up: method as in PMID 21847091; conditions: read-out: KD of PYR1 for ABA; cited from earlier work
[1] = biological target: PYR1 in complex with co-receptor TYPE 2C PROTEIN PHOSPHATASE (PP2C); set-up: method as in PMID 21847091; conditions: cited from earlier work
AtHTL = biological target: T1, AtHTL (Arabidopsis thaliana, UniProt Q9SZU7); conditions: cited from earlier work
T1 sequence (Q9SZU7 1-270): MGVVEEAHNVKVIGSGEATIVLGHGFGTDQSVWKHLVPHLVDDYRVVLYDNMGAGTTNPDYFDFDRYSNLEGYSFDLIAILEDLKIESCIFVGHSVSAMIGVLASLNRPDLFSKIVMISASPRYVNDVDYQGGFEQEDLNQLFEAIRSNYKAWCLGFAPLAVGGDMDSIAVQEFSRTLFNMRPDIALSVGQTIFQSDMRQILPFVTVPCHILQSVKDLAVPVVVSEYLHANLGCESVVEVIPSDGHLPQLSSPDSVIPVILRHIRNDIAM

ShD14 [2] = experiment: SL hydrolysis assay (HPLC), ShD14; assay type: biochemical, Striga hermonthica; conditions: 3.2 μM SL, 1.6 μM enzyme, 30 min, 30 °C
Method: (§1) Next, 50 μL of 1 M HCl was added to each reaction solution, and the reaction solutions were extracted 3 times with 300 μL of ethyl acetate. The ethyl acetate layers were combined and dried in vacuo and were then dissolved in 50 μL of methanol. For each layer, 5 μL was applied to the reverse-phase HPLC (Shimadzu LC-2030C). The analytical column was a CAPCELL CORE C18 (Φ 2.1 × 100 mm, Shiseido). The analytes were eluted under gradient conditions at a flow rate of 0.20 mL min^−1 with a linear ramp of methanol to 90% methanol at 19 min, which was maintained for 6 min before resetting to the original conditions. […] The percentage of hydrolyzed SL was calculated and used for statistical analyses. One-tailed unpaired Student’s t-tests were used for comparison between buffer samples and enzyme samples.

ShHTL4 = experiment: SL hydrolysis assay (HPLC), ShHTL4; assay type: biochemical, Striga hermonthica; conditions: 3.2 μM SL, 1.6 μM enzyme, 30 min, 30 °C
Method: as §1

ShHTL7 [3] = biological target: T2, ShHTL7 (Striga hermonthica, UniProt A0A0M3PNA2); experiment: SL hydrolysis assay (HPLC), ShHTL7; assay type: biochemical; conditions: 3.2 μM SL, 1.6 μM enzyme, 30 min, 30 °C
T2 sequence (A0A0M3PNA2 1-271): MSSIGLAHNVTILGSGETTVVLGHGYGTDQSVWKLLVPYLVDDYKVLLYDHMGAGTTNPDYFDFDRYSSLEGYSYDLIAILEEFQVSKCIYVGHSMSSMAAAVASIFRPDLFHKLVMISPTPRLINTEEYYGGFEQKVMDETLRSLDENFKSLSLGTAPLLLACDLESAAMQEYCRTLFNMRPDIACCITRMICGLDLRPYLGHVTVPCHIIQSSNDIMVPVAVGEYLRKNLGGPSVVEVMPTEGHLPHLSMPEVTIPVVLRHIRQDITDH
Method: as §1

ShHTL1 [4] = biological target: T3, ShHTL1 (Striga hermonthica, UniProt A0A0M4AV81); experiment: SL hydrolysis assay (HPLC), ShHTL1; assay type: biochemical; conditions: 3.2 μM SL, 1.6 μM enzyme, 30 min, 30 °C
Method: as §1

ShHTL3 [5] = tested on: ShHTL3; set-up: method as in PMID 27507097; conditions: cited from earlier work
ShHTL1 [6] = biological target: T3, ShHTL1; experiment: ITC binding to ShHTL1; conditions: 750 μM ShHTL1 into 100 μM rac-GR24, 20 °C
Method: The binding assays were performed using a MicroCal iTC200 isothermal titration calorimeter (GE Healthcare). Prior to the ITC experiments, concentrated ShD14, ShHTL1, ShHTL4, and ShHTL7 were exchanged into a buffer consisting of 20 mM HEPES (pH 8.0) and 150 mM NaCl to remove dithiothreitol and were then adjusted to a final concentration of 150 μM. The sample cell was filled with protein solution (204 μL). Nineteen consecutive 2.0-μL aliquots of 3 mM KAR1 (3-methyl-2H-furo [2,3-c] pyran-2-one) were injected into a prepared protein solution at 150 s intervals at 20 °C. The first injection volume was 0.4 μL, and the observed thermal peak was excluded from the data analysis. A negative control was obtained by titrating 3 mM KAR1 into the buffer (20 mM HEPES, pH 8.0, 150 mM NaCl) in the same manner. Data fitting was performed in “one set of sites” mode, and KD values were calculated using Origin software provided by MicroCal.
Binding analyses of ShHTLs and ShD14 with KAR1. The ITC assays were performed by adding 3 mM KAR1 to 150 μM ShHTL1 (a), ShHTL4 (b), ShHTL7
(c), ShD14 (d) and AtHTL (e).
ShHTL1 and AtHTL were fitted using the MicroCal origin software with the “one binding site” model.

ShD14–ShMAX2 interaction = experiment: Y2H assay ShD14-ShMAX2; assay type: cell-based, Striga hermonthica; conditions: 5 μM ligand
Excerpt: (§2) Full-length sequences of ShD14, ShHTL1, ShHTL3, ShHTL4, ShHTL7, and AtHTL were cloned into the pGBKT7 vector as bait (Clontech), and the coding regions of ShMAX2 and AtMAX2 were cloned into the pGADT7 vector as prey (Clontech). MAX2 was supposed to be unstable without ASK1. Therefore, AtASK1 was cloned into the N terminus of ShMAX2 and AtMAX2 with a 16-residue linker for co-expression. The bait and prey plasmids were co-transformed into the yeast (Saccharomyces cerevisiae) strain Y2HGold (Clontech) by the lithium acetate-mediated method. The presence of both plasmids was confirmed by growth on SD/-Leu/-Trp (-LT) plates. […] The plates were incubated for 5 days at 30 °C.

ShHTL7 L124F/T190F/C194F = ShHTL7 L124F/T190F/C194F (Striga hermonthica, UniProt A0A0M3PNA2, C194F/L124F/T190F); experiment: YLG competition assay, ShHTL7 triple mutation; assay type: biochemical
Method: (§3) The YLG assays were conducted as previously described[28] with minor modifications. Ten microliters of 0.1 mg mL^−1 ShHTL7 protein in a reaction buffer containing 20 mM HEPES, pH 7.0, 150 mM NaCl and 80 μL of reaction buffer were mixed in a 96-well black plate (Grenier). Ten microliters of 10 μM YLG was added to the solution and incubated at 25 °C for 1 h prior to measurement. The fluorescence intensity was measured using a SpectraMax® iD5 Multi-Mode Microplate Reader (Molecular Devices). Measurements were performed at room temperature under a 480 nm excitation wavelength, a 530 nm emission wavelength, a manual PMT of 500, and a read height of 1.00 mm. The fluorescence can be detected if YLG is hydrolyzed. The RFU (relative fluorescence unit) was calculated by subtracting the fluorescence of the buffer (without protein) and then dividing by the fluorescence of wild-type ShHTL7. […]
(§4) in a previous study6, the enzymes were incubated with YLG at the indicated concentrations. The RFU (relative fluorescence units) was calculated by dividing the fluorescence of hydrolysis at 10 μM YLG by wild type (WT) ShHTL7 after subtracting the fluorescence of the buffer. The Km values were calculated from a Michaelis-Menten plot using GraphPad Prism software and are shown in the plots. […]
(§5) The inhibition constant Ki was calculated according to the Cheng-Prusoff equation7. […]

ShHTL3 [7] = experiment: SL hydrolysis assay (HPLC), ShHTL3; assay type: biochemical, Striga hermonthica; conditions: 3.2 μM SL, 1.6 μM enzyme, 30 min, 30 °C
Method: as §1

ShHTL7 T190F/C194F [8] = biological target: ShHTL7 T190F/C194F (Striga hermonthica, UniProt A0A0M3PNA2, C194F/T190F); experiment: YLG competition assay, ShHTL7 double mutation; assay type: biochemical
Method: as §3, with “ShHTL7. The experiment was repeated 6 times independently.” for “ShHTL7.”
(§6) in a previous study6, the enzymes were incubated with YLG at the indicated concentrations. The RFU (relative fluorescence units) was calculated by dividing the fluorescence of hydrolysis at 10 μM YLG by wild type (WT) ShHTL7 after subtracting the fluorescence of the buffer. The Km values were calculated from a Michaelis-Menten plot using GraphPad Prism software and are shown in the plots. (d) Competition assays with synthetic SL rac-GR24. WT and ShHTL7 protein […]
(§7) The inhibition constant Ki was calculated according to the Cheng-Prusoff equation7. Kirac-GR24 values were 0.07 ± 0.01 μM for WT; 0.15 ± 0.04 μM for the T190F/C194F double mutation; and 11.85 ± 3.43 μM for the L124F/T190F/C194F triple mutation as shown in the plots. The experiment was repeated 4 times independently, and each replicate is represented by a black dot.
(§8) The mean values are fitted, and the error bars represent the standard deviation (S.D.) of three replicates (means ± S.D., n=3).

ShHTL7 T190F/C194F [9] = experiment: YLG competition assay, ShHTL7 double mutation; assay type: biochemical, Striga hermonthica; conditions: from Ki in YLG competition assays
Method: as §3, with “ShHTL7. The experiment was repeated 6 times independently.” for “ShHTL7.”
as §6, §7, §8

[10] = tested on: ShHTL7–ShMAX2 interaction; experiment: Y2H assay ShHTL7-ShMAX2; assay type: cell-based, Striga hermonthica; conditions: 5 μM ligand
Excerpt: as §2

ShMAX2 and ShD14 = experiment: In vitro pull-down ShD14-ShMAX2; assay type: binding, Striga hermonthica; conditions: 50 μM ligand, CBB staining
Method: (§9) Ni-NTA pull-down assays were performed with purified ShMAX2 or AtMAX2 as the bait and […]14, or GST-AtD14 as the prey. The molecular weight of the HTL/D14 proteins is nearly the same as that of ASK1; therefore, the HTL/D14 proteins were fused to GST, increasing their molecular weight for detection on SDS-PAGE gels. […] The protein complexes were then eluted with 100 μL of elution buffer containing 50 mM Bis-Tris, pH 6.8, 500 mM NaCl, and 500 mM imidazole and subjected to SDS-PAGE analysis.

AtD14 = biological target: AtD14; set-up: method as in earlier work; conditions: read-out: Kd of rac-GR24 binding to AtD14; quoted in reviewer comment; cited from earlier work
ShMAX2 and ShHTL4 = experiment: In vitro pull-down ShHTL4-ShMAX2; assay type: binding, Striga hermonthica; conditions: 50 μM ligand, CBB staining
Method: as §9

ShHTL7 [11] = biological target: T2, ShHTL7; experiment: YLG competition assay, WT ShHTL7; assay type: biochemical
Method: as §3, §4, §5

ShD14 [12] = experiment: YLG hydrolysis assay, ShD14; assay type: biochemical, Striga hermonthica; conditions: fluorescence, repeated YLG hydrolysis assays
Method: The YLG assays were conducted as previously described[28] with minor modifications. […] The fluorescence intensity was measured using a SpectraMax® iD5 Multi-Mode Microplate Reader (Molecular Devices). Measurements were performed at room temperature under a 480 nm excitation wavelength, a 530 nm emission wavelength, a manual PMT of 500, and a read height of 1.00 mm. The fluorescence can be detected if YLG is hydrolyzed. […] The experiment was repeated 6 times independently. page 4: Supplementary Figure 4. YLG hydrolysis assays of OsD14 and ShD14. RFU (relative fluorescence units) was calculated by dividing the fluorescence of OsD14. The fluorescence can be detected under a 490 nm excitation wavelength and a 520 nm emission wavelength if YLG is hydrolyzed. The experiments were repeated 4 (OsD14) or 6 times independently. Columns represent the mean RFU, and the error bars represent the standard deviation (S.D.). Each replicate is indicated by a black circle.

ShD14 [13] = tested on: ShD14; set-up: method as in PMID 26293962; conditions: cited from earlier work

T3 sequence (A0A0M4AV81 entry or part of it): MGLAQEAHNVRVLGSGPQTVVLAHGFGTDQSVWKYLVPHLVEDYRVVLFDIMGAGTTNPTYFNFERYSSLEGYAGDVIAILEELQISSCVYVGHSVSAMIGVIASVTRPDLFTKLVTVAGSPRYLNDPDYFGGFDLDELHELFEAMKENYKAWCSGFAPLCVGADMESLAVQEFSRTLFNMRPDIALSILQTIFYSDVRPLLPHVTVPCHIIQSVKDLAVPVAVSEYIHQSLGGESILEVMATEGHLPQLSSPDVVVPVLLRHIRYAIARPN
ShHTL7 T190F/C194F (Striga hermonthica, UniProt A0A0M3PNA2, C194F/T190F), sequence (A0A0M3PNA2 whole entry T190F/C194F): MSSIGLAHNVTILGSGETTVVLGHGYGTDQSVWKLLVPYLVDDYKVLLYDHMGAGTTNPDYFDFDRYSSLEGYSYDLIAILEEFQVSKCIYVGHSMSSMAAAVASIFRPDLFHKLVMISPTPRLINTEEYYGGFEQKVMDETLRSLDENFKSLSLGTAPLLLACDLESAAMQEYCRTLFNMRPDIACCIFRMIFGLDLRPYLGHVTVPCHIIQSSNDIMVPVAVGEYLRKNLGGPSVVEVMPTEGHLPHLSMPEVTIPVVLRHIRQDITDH
ShHTL7 L124F/T190F/C194F, sequence (A0A0M3PNA2 whole entry L124F/T190F/C194F): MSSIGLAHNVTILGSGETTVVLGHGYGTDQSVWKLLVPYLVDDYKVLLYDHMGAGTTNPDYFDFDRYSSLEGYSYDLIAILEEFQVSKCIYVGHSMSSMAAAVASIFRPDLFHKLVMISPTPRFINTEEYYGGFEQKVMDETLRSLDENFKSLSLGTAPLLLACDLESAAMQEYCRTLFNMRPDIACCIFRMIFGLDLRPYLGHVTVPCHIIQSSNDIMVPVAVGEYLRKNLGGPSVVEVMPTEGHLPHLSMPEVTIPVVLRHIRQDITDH

CC1=CC(=O)CC(C)(C)[C@@]1(O)/C=C/C(C)=C\C(=O)O [ABA, abscisic acid]
Kd ([…] 1 (PYR1)): 97000 nM | binding affinities for ABA, PYR1-PP2C complex [1]: nanomolar range

CC1=C[C@H](O/C=C2/C(=O)O[C@@H]3c4ccccc4C[C@H]23)OC1=O [GR24^ent−5DS]
hydrolysis of GR24^ent−5DS by AtHTL (AtHTL): able to hydrolyze GR24^ent−5DS

CC1=CC(OC=C2C(=O)OC3C4=C(CCCC4(C)C)CC23)OC1=O (stereo not drawn) [5DS, 5-deoxystrigol]
hydrolytic activity of ShD14 toward SL (ShD14 [2]): able to hydrolyze | hydrolytic activity of ShHTL4 toward SL (ShHTL4): able to hydrolyze | hydrolytic activity of ShHTL7 toward SL (ShHTL7 [3]): able to hydrolyze | hydrolytic activity of ShHTL1 toward SL (ShHTL1 [4]): weak 5DS hydrolytic activity

CCOC(=O)c1ccccc1-c1c2ccc(=O)cc-2oc2cc(OC3C=CC(=O)O3)ccc12 (stereo not drawn) [dYLG, desmethyl-YLG]
hydrolysis of dYLG by AtHTL (AtHTL): hydrolyze the synthesized desmethyl-YLG (dYLG)

CC1=CC(O/C=C2/C(=O)OC3c4ccccc4CC23)OC1=O (racemic) [rac-GR24]
binding of rac-GR24 to ShHTL3 (ShHTL3 [5]): can bind to KAR1 but not rac-GR24 | binding of rac-GR24 to ShHTL1 (ShHTL1 [6]): no detectable binding | hydrolytic activity of ShD14 toward SL (ShD14 [2]): able to hydrolyze | ligand-induced ShD14-ShMAX2 interaction (ShD14–ShMAX2 interaction): rac-GR24-dependent ShD14–ShMAX2 interaction was also observed | IC50 (ShHTL7 L124F/T190F/C194F): 13900 ± 3410 nM | Ki (ShHTL7 L124F/T190F/C194F): 11800 ± 3430 nM | hydrolytic activity of ShHTL4 toward SL (ShHTL4): able to hydrolyze | hydrolytic activity of ShHTL3 toward SL (ShHTL3 [7]): no hydrolytic activity | IC50 (ShHTL7 T190F/C194F [8]): 210 ± 50 nM | Ki (ShHTL7 T190F/C194F [8]): 150 ± 40 nM | decrease in rac-GR24 binding affinity, T190F/C194F vs ShHTL7 (ShHTL7 T190F/C194F [9]): twofold decrease | hydrolytic activity of ShHTL7 toward SL (ShHTL7 [3]): able to hydrolyze | ligand-induced ShHTL7-ShMAX2 interaction [10]: triggered the interaction of ShHTL7 with ShMAX2 | ligand-dependent ShMAX2-ShD14 interaction (ShMAX2 and ShD14): direct interaction was detected between ShMAX2 and ShD14 in a rac-GR24-dependent manner | Kd (AtD14): 300 nM | hydrolytic activity of ShHTL1 toward SL (ShHTL1 [4]): no hydrolytic activity | ligand-dependent ShMAX2-ShHTL4 interaction (ShMAX2 and ShHTL4): able to interact with ShHTL4 of the divergent clade in the presence of rac-GR24 | IC50 (ShHTL7 [11]): 170 ± 10 nM | Ki (ShHTL7 [11]): 70 ± 10 nM | hydrolysis of rac-GR24 by AtHTL (AtHTL): able to hydrolyze rac-GR24 to some extent

CCOC(=O)c1ccccc1-c1c2ccc(=O)cc-2oc2cc(OC3C=C(C)C(=O)O3)ccc12 (stereo not drawn) [YLG, Yoshimulactone Green]
hydrolysis of YLG by ShD14 (ShD14 [12]): not YLG | hydrolytic activity of ShD14 toward YLG, previous study (ShD14 [13]): no hydrolytic activity toward YLG
